Assays:
[1] = test system: prostate of orchiectomized male mice; assay: prostate growth in orchiectomized male mice treated with testosterone; assay type: in vivo; settings: testosterone 3 mg/kg/day S.C. 7 days
Procedure: In order to evaluate the response to testosterone, twelve week old male mice were orchiectomized (ORCed) and testicles were wet weighed (Xu et al., Science 279:1922-1925 (1998)). Nine days following ORC, mice were treated during days 9-15 with S.C. injections of testosterone (3 mg/kg/day, Sigma) or vehicle alone (0.1 ml corn oil). On day 16, mice were sacrificed and the prostate and the pars prostate of the urethra (for technical reasons) were removed and wet weighed.
Eight days after orchiectomization, prostates in both wild-type and mutant animals regressed. Injection of testosterone for 7 days stimulated prostate growth in wild-type animals as well as in RIZ1 null animals. Wild-type and RIZ1 null mutant animals had similar ratios of the weight of prostate and urethra to body weight (1.19±0.03 vs. 1.14±0.03; n=10 and 9 mice for +/+ and −/−, respectively; p=0.23). They also had similar ratios of testis weight to body weight (7.7±0.4 vs. 7.4±0.4; n=14 for both genotypes; p=0.58).

RIZ1 HMT activity [2] = assay: HMT activity of RIZ1 immunoprecipitates from TPA treated U937 cells; assay type: cell-based, human; settings: 24 hr following TPA treatment
Procedure: (§1) Methylation reactions (30-40 μl) contained 20 mM Tris-HCl (pH8.0), 0.2 M NaCl, 0.4 mM EDTA, affinity-purified GST-RIZ1 or immunoprecipitation products, free histones (20-40 μg) purified from acid extraction of human cancer cells (A549 or U2OS), and 3 μl (1.65 μCi and 21 pmole)[methyl-^3H]-adenosyl-methionine (Amersham-Pharmacia). Nuclear extracts were prepared according to standard procedures and used for immunoprecipitation. Antisera used for immunoprecipitation were anti-KG7.1S and preimmune serum as described previously (Buyse et al., Proc. Natl. Acad. Sci. U.S.A. 92:4467-4471 (1995)). Similar HMT activity has also been observed with immunoprecipitates using a different serum (data not shown), 1715, which was described previously (Steele-Perkins et al., Genes Dev. 15:2250-2262 (2001)). Various amount of SAH (Sigma) were added in some methylation reactions.
To further study the contrasting behavior of H1 and H3 methylation, regulation of RIZ1 HMT activity by cell growth was examined, using 12-O-tetradecanoyl-phorbol-13-acetate (TPA) treatment of U937 myeloid leukemic cells as a model system. U937 cells undergo growth arrest and terminal differentiation into monocytes when exposed to TPA. This cell model was selected for study because it has been shown in these cells that RIZ gene expression is only marginally regulated by TPA. […]

uterus of OVXed mice = assay: uterine growth in response to E2 in ovariectomized (OVXed) mice; assay type: in vivo; settings: E2 0.8 ng/g/day S.C. three days
Procedure: To investigate E2-mediated increments in proliferation and hyperemia of uteri and changes in the cellular organization of the vaginal epithelium (Xu et al., Science 279:1922-1925 (1998)), 8-week old female RIZ−/− and RIZ+/+mice were ovariectomized (OVXed). At day 15-17 following OVX, mice were treated with S.C. injections of E2 (0.8 ng/g/day; Sigma) or with the vehicle (0.1 ml corn oil) alone for three days. The mice were then sacrificed at day 18 and the uterine wet weight was measured, and vaginal tissue was collected. The tissues were processed as above and vaginal specimens were stained with routine H & E and uterine specimens for PR expression. The thickness of the vaginal epithelium and the cornified layer was photographed and measured as described in FIG. 4 using the Spot 3.2.4. software (Diagnostic Instruments).
The RIZ1 mutant mice are deficient in RIZ1, but not RIZ2, and therefore lack specifically any PR-domain related functions of the gene (Steele-Perkins et al., Genes Dev. 15:2250-2262 (2001)). These animals are viable and fertile and show no gross developmental defects (Steele-Perkins et al., supra (2001)). To determine the physiological role of RIZ1 in steroid hormone action, uterine growth in response to E2 was first examined in ovariectomized (OVXed) mice (Lubahn et al., Proc. Natl. Acad. Sci. USA 90:11162-11166 (1993)). Wild-type or heterozygous RIZ1 mutant mice responded to E2 treatment with a 5.3±0.5 and 5.4±0.4 fold increase in uterine wet weight. […] Uterine response to mechanical traumatization (decidual stimulation) is mainly a progesterone receptor-dependent process (Lydon et al., Genes Dev. 9:2266-2278 (1995)). OVXed mice were treated with a high dose of progesterone and a low dose of E2, followed by mechanical stimulation of the left uterine horn of each animal. The unstimulated […] uterine horn served as a control.

[3] = test system: progesterone receptor gene expression in luminal epithelial cells of the uterus; assay: E2 regulation of uterine progesterone receptor expression (immunohistochemistry); assay type: in vivo, mice
Source text: For RIZ staining, the RIZ rabbit antiserum KG7.1S (Buyse et al., Proc. Natl. Acad. Sci. U.S.A. 92:4467-4471 (1995)) was used at an optimal dilution of 1/200. For ERα staining the polyclonal rabbit anti-ERα antibody (sc-542 Santa Cruz) was used at a dilution of 1/250, and for PR staining the polyclonal rabbit anti-PR antibody (A0098 DAKO) was used at a dilution of 1/100, essentially as described (Tibbetts et al., Biol. Reprod. 59:1143-1152 (1998)). Tissues were fixed in Bouin's solution and processed by routine methods for embeddement in paraffin and sectioning (5 μm). […]
To investigate E2-mediated increments in proliferation and hyperemia of uteri and changes in the cellular organization of the vaginal epithelium (Xu et al., Science 279:1922-1925 (1998)), 8-week old female RIZ−/− and RIZ+/+mice were ovariectomized (OVXed). […] The mice were then sacrificed at day 18 and the uterine wet weight was measured, and vaginal tissue was collected. […] The thickness of the vaginal epithelium and the cornified layer was photographed and measured as described in FIG. 4 using the Spot 3.2.4. software (Diagnostic Instruments).
The epithelial and stromal compartments of the uterus were then analyzed for E2-induced changes in progesterone receptor expression. […]

RIZ1 HMT activity [4] = assay: HMT activity of RIZ1 immunoprecipitated from E2 treated MCF-7 cells; assay type: cell-based, human; settings: RIZ1 immunoprecipitates
Procedure: as §1
To help understand this apparent paradox, the estrogen effects on RIZ1 HMT activity were examined. Nuclear extracts from control and E2 treated MCF-7 cells were immunoprecipitated by RIZ1 serum anti-KG7.1S or preimmune serum. As expected, HMT activity (labeling of H3 and H1) was detected in the immunoprecipitates of RIZ1 serum but not preimmune serum (FIG. 7A, lanes 1 and 3). […] Thus, E2 appears to regulate RIZ1 HMT activity in a selective way, inhibiting specifically methylation of H3 but not H1.

[5] = test system: histone H1 phosphorylation in MCF7 cells; assay: H1 phosphorylation in MCF7 cells by western blot; assay type: cell-based, human; settings: E2 48 hr
Procedure: MCF-7 and T47-D breast cancer cells were grown in 15 cm dishes in DMEM with 5% FCS, and 2 mM L-glutamine. Subconfluent cells (4×10^6) were then cultured in DMEM without phenol red, serum or hormones for an additional 3 days, during which media was changed twice daily. Cells were incubated for 24 h with or without hormones (50 nM for E2 and 100 nM for R5020) and infected with an adenovirus vector containing RIZ1 (AdRIZ1; at a concentration of 1×10^10 viral particles/15 cm dish) or the empty vector (AdNull) (He et al., Cancer Res. 58:4238-4244 (1998)). Cells were then grown for an additional 48 h in DMEM without phenol red supplemented with 5% charcoal-treated FCS (Omega Scientific). Cells were harvested and proceeded to immunoprecipitation and immunoblot essentially as described (Buyse et al., Proc. Natl. Acad. Sci. U.S.A. 92:4467-4471 (1995); Liu et al., J. Biol. Chem. 272:2984-2991 (1997)). […]
Because H1 phosphorylation has been linked with transcriptional activation (Bhattacharjee et al., Mol. Cell. Biol. 21:5417-5425 (2001); Dou and Gorovsky, Mol. Cell. 6:225-231 (2000)), it was next asked whether E2 or RIZ1 can enhance H1 phosphorylation. Histones were extracted from MCF7 cells infected with AdRIZ1 or control virus and analyzed by western blot analysis using antibodies that recognize specifically phosphorylated H1.

RIZ1 methyltransferase = target: T1, RIZ1 methyltransferase (Homo sapiens, UniProt Q13029, DUP703-703); assay: in vitro methylation of histones by immunoprecipitated RIZ1; assay type: biochemical; settings: 0.42 μM of 3H-SAM
T1 construct: Enzyme activity of full-length RIZ1 protein from mammalian cells was next assayed; expressed in transfected cells; host or cells: U2OS human osteosarcoma cells infected with AdRIZ1 adenovirus
Procedure: as §1
In view of RIZ1's role in tumor suppression, it was determined whether S-adenosylhomocysteine (SAH), an analog inhibitor of SAM-dependent methyltransferases whose abnormal accumulation is linked with carcinogenesis, can inhibit RIZ1 enzyme activities. The effect of SAH on the in vitro methylation of histones by immunoprecipitated RIZ1 was tested. A methylation assay was performed in the presence of 0, 0.5 and 5 μM of SAH and 0.42 μM of 3H-SAM.

[6] = target: protein methyltransferase (PMT); settings: universal inhibitor of PMT; cited from earlier work

T1 sequence (Q13029 with tags, fused parts or gaps DUP703-703): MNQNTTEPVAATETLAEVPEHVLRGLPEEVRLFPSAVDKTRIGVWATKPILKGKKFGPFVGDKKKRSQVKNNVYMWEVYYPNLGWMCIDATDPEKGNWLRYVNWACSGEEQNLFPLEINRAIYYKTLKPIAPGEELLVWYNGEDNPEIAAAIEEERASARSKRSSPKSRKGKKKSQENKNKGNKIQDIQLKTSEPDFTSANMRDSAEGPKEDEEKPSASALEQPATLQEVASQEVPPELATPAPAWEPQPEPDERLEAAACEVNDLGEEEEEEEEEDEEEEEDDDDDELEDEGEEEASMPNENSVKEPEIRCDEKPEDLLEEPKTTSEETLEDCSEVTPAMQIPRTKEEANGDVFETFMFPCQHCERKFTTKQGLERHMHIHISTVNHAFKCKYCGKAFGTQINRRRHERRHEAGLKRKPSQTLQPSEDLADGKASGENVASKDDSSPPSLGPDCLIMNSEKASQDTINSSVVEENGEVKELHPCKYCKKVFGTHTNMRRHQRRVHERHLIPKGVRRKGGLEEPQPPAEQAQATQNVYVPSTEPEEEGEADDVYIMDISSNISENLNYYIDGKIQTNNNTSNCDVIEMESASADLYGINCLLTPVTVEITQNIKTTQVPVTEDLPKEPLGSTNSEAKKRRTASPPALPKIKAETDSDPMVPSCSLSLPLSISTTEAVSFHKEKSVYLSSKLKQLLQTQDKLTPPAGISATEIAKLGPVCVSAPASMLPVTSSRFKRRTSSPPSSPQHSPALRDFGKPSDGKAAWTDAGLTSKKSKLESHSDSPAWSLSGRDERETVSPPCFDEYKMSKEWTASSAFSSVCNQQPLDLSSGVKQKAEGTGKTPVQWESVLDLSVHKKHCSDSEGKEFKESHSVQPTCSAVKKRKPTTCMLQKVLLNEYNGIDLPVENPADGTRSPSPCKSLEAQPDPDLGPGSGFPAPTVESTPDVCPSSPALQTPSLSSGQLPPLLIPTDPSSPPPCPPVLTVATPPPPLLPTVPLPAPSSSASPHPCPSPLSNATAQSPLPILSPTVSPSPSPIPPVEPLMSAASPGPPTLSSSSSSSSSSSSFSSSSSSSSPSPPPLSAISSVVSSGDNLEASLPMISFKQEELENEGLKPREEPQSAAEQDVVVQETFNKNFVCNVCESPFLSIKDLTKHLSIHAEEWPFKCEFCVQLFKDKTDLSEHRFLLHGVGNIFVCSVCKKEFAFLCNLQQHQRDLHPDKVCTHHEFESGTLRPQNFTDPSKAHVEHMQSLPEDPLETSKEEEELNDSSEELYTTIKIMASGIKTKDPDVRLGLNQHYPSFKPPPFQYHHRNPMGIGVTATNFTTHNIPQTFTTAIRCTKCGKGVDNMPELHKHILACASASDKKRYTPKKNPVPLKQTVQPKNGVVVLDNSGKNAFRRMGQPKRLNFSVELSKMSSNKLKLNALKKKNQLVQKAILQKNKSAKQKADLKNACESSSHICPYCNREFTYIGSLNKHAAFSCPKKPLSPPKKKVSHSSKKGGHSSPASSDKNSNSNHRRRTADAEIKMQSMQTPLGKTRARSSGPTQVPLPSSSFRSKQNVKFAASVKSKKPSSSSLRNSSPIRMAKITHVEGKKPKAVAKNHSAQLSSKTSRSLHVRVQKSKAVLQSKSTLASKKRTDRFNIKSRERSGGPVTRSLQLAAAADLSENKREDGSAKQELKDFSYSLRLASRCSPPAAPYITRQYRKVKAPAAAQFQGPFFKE

C[C@]12CC[C@H]3[C@@H](CCC4=CC(=O)CC[C@@]43C)[C@@H]1CC[C@@H]2O [testosterone]
ratio of the weight of prostate and urethra to body weight ([1]; RIZ1 null mutant orchiectomized mice, n=9): 1.14±0.03 | ratio of the weight of prostate and urethra to body weight ([1]; wild-type orchiectomized mice, n=10): 1.19±0.03

CCCCCCCCCCCCCC(=O)O[C@@H]1[C@@H](C)[C@@]2(O)[C@@H](C=C(CO)C[C@]3(O)C(=O)C(C)=C[C@@H]23)[C@@H]2C(C)(C)[C@]12OC(C)=O [TPA, 12-O-tetradecanoyl-phorbol-13-acetate]
H1 methylation by RIZ1 (RIZ1 HMT activity [2]): slightly decreased | H3 methylation by RIZ1 (RIZ1 HMT activity [2]): increased

C[C@]12CC[C@@H]3c4ccc(O)cc4CC[C@H]3[C@@H]1CC[C@@H]2O [E2, estradiol]
fold increase in uterine wet weight (uterus of OVXed mice; heterozygous RIZ1 mutant OVXed mice): 5.4±0.4 fold | fold increase in uterine wet weight (uterus of OVXed mice; homozygous RIZ1 mutant OVXed mice): about 3.7±0.4 fold | fold increase in uterine wet weight (uterus of OVXed mice; wild-type OVXed mice): 5.3±0.5 fold | repression of progesterone receptor gene expression ([3]; in the absence of RIZ1): 2 fold | repression of progesterone receptor gene expression ([3]; in the presence of RIZ1): ~20 fold | H1 methylation by RIZ1 (RIZ1 HMT activity [4]): maintained or slightly enhanced | H3 methylation by RIZ1 (RIZ1 HMT activity [4]): decreased | H1 phosphorylation [5]: increased

Nc1ncnc2c1ncn2[C@@H]1O[C@H](CSCC[C@H](N)C(=O)O)[C@@H](O)[C@H]1O [SAH, S-adenosylhomocysteine]
Histone methylation by RIZ1 (RIZ1 methyltransferase; 0.5 μM of SAH): partially inhibited | Histone methylation by RIZ1 (RIZ1 methyltransferase; 5 μM of SAH): completely inhibited | Ki [6]: 5 to 12 µM

Source: patent US6989245B2, “Screening, diagnostic and therapeutic methods relating to RIZ” (The Burnham Institute, priority 2001, dated 2006)
